Work on `Nc1nc(N)c(C(=O)N=CNNC(=O)n2ccnc2)nc1F` yielded a melting point of 227 to 230 °C. In the case of `CC(C)(C)c1cc(C=C2SCN(CC#N)C2=O)cc(C(C)(C)C)c1O`, the melting point is reported as 186 to 188 °C. Work on `COc1ccc2nc(-c3ccc(OC)c(F)c3)cc(O)c2c1` yielded a melting point of 326 to 328 °C. Work on `CC(C)n1nc(O)nc1N1CCCC1` yielded a melting point of 123 to 125 °C. Work on `COC1(OC)CCCCC1N=O` (stereo not drawn) yielded a melting point of 108 to 120 °C. With `CCOc1ccn2nc(SCc3ccccc3)nc2n1` the melting point was 115 to 117 °C. `O=c1[nH]c(=O)c2cn(C3CCCC3)nc2[nH]1` showed a melting point of over 300 °C. With `Cc1sc(-c2cccs2)cc1Br` the melting point was 36 to 37 °C. Compound `O=C1N=C(N2CCOCC2)SC1=Cc1cccc(-c2ccc(O)c(F)c2)c1` has a melting point of 233 to 235 °C. `CNC(=O)c1cnc(Cl)c(Cl)c1` showed a melting point of 134 to 138 °C. With `NCc1ccn(C2=CC3=C(CC2)CCc2[nH]c(=O)c(=O)n(OCC(=O)O)c23)c1` the melting point was over 300 °C. With `COc1ccc2c(c1)CCC1C2=CCC2(C)C1CCC21OCCO1` (stereo not drawn) the melting point was 146 to 149 °C. With `CC(=O)NC[C@H]1CN(c2ccc(N3CCC(O)(CN=[N+]=[N-])CC3)cc2)C(=O)O1` the melting point was 134 to 136 °C. Compound `OCc1cccc2oc3c(c12)CCCC3` has a melting point of 43 to 45 °C. `C(C#Cc1c2ccccc2cc2ccccc12)#Cc1c2ccccc2cc2ccccc12` showed a melting point of 280 to 282 °C. With `CCCC12CCC(c3ccc(Cl)cc3)(OC1)OC2` the melting point was 94 °C. `O=C1COC2(CCN(CCCC(=O)c3ccc(F)cc3)CC2)CN1` showed a melting point of 117 to 118 °C. For `CNC(=O)n1sc(OCc2ccc(Cl)cc2)nc1=O`, the melting point was 145 °C. Work on `COCNC(=O)C1C(c2ccc(F)cc2)CC2CCC1N2C` (stereo not drawn) yielded a melting point of 140 to 142 °C. `CN(C(=O)CCc1ccc(CN2CCC3(CCCC3)CC2)cc1)c1ccc(-c2ccc(Cl)cc2)cc1` gave a melting point of 119 °C. Work on `COC(=O)CCC#Cc1cc(Cl)ccc1NS(=O)(=O)c1ccc2nc(N)sc2c1` yielded a melting point of 175 °C. `CC(C)(C(=O)O)c1cn2nc(Cl)ccc2n1` showed a melting point of 159 to 161 °C. With `Cc1cccc(C(=O)NC(C)C)c1N(C(=O)c1cc(C(F)(F)F)[nH]n1)c1ncccc1Cl` the melting point was 194 to 195 °C. Compound `Cc1noc(NS(=O)(=O)c2ccc(NC(=O)CN)cc2-c2ccc(CC(C)C)cc2)c1C` has a melting point of 135 to 138 °C. With `CC(C)(C)c1ccc(C(O)CCCN2CCC(C(O)c3nc4ccccc4n3Cc3ccc(F)cc3)CC2)cc1` (stereo not drawn) the melting point was 87 to 90 °C. Work on `Cc1ccc(-c2c(C)c(NC(=O)CC(C)(C)C)c(C)c3c2OCC3c2ccc(C(C)C)cc2)nc1` (stereo not drawn) yielded a melting point of 228 to 229 °C. In the case of `COc1ccc(-c2nc(C#N)oc2-c2ccc(OC)cc2)cc1`, the melting point is reported as 110 to 112 °C. Work on `CS(=O)CC(=O)c1ccc(Cl)cc1N` (stereo not drawn) yielded a melting point of 129 to 132 °C. With `CCCc1c(C(=O)C(C)C)c2ccc(CC(=O)OC)cc2n1Cc1cc2c(cc1Cl)OCO2` the melting point was 119 to 120 °C. With `O=C1[C@H]2CCC[C@H]2N(C(=O)CN2CCN(c3ccccc3)CC2)c2ccccc2N1Cc1ccccc1` (relative stereo) the melting point was 164 to 165 °C. `N#Cc1ccc(N2C[C@@H]3[C@H](O)CCN3C2=O)c2ccccc12` showed a melting point of 226 to 228 °C. With `CCOC(=O)COc1cccc(C(=O)Nc2ccccc2Sc2ccc(-c3nnn[nH]3)cc2)c1` the melting point was 88 to 90 °C. `CC(C)(C)c1cc2c(s1)Nc1ccccc1N=C2N1CCN[C@@H](CCc2ccccc2)C1` gave a melting point of 93 to 96 °C. Work on `Nc1c(-c2cc(Cl)ccc2O)nnn1-c1ccc(Cl)cc1Cl` yielded a melting point of 131 to 136 °C. For `COc1ccc(Cl)cc1C(=O)NCC1CCOc2cc(OC)c(S(N)(=O)=O)cc21` (stereo not drawn), the melting point was 202 °C. Work on `c1ccc(-n2c(-c3cccc(OCCN4CCCCC4)c3)nc3ccccc32)cc1` yielded a melting point of 68 °C. `CC(C)N(CC(O)(Cn1cncn1)c1ccc(Cl)cc1Cl)S(C)(=O)=O` (stereo not drawn) showed a melting point of 132 to 133 °C. In the case of `CC(=O)Nc1nc(N)nc(-c2ccc(-c3ccccc3)cc2)n1`, the melting point is reported as over 260 °C. In the case of `N=C(N)NOc1nccc2ccccc12`, the melting point is reported as 162 to 164 °C. Compound `COc1ccc2nc(Cl)c(C#N)cc2c1` has a melting point of 201 to 202 °C. In the case of `COc1cccc(C=C2NC(=O)NC2=O)c1`, the melting point is reported as 229 to 231 °C. `Cn1c(=O)cc(-c2cccc(Cl)c2)c2cc(C(N)(c3ccc(Cl)cc3)c3cnccc3Cl)ccc21` (stereo not drawn) showed a melting point of 180 °C. Compound `Nc1nc(=O)n(-c2ccsc2)cc1F` has a melting point of 228 to 229 °C. `COc1cc(OC)nc(-c2c(C)[nH]c3ccccc23)n1` gave a melting point of 182 to 184 °C. Work on `Cc1c2n(c3ccccc13)C(=O)C(=Cc1ncn(S(=O)(=O)N(C)C)c1C)CC2` yielded a melting point of 200 to 205 °C. `CN(C)C1CCc2c(c3ccccc3n2CC(=O)O)C1` (stereo not drawn) gave a melting point of 316 to 319 °C. For `N#Cc1ccc2c(c1)C(n1ccccc1=O)=CC(CF)(CF)O2`, the melting point was 174 to 175 °C. With `CC(C(N)=O)c1ccc(-c2ccc(F)cc2F)c(F)c1` (stereo not drawn) the melting point was 136 to 137 °C. For `CCOC(=O)CN1C(=O)CSC1=Nc1cc(-n2c(=O)cc(C(F)(F)F)n(C)c2=O)c(F)cc1Cl`, the melting point was 67 to 87 °C. `CCOC(=O)c1cc(NCc2ccccc2)c(Sc2ccccc2C)c(S(N)(=O)=O)c1` gave a melting point of 166 to 167 °C. `CCc1nc2c(N)nc3ccccc3c2n1OC(C)C` showed a melting point of 242 to 243 °C. Work on `CC12CCC(C1)C1(C)Oc3ccc(C(=O)c4ccc(C=CC(=O)O)cc4)cc3C21C` (stereo not drawn) yielded a melting point of 242 to 243 °C. For `CC(C)c1cc(CCCOc2ncccc2CC(=O)O)n(Cc2ccc(C(F)(F)F)cc2Cl)n1`, the melting point was 114 to 115 °C. Work on `CC(=O)N1CCc2ccc(SCc3ccccc3)c([N+](=O)[O-])c2C1` yielded a melting point of 94 to 95 °C. With `CNS(=O)(=O)c1ccccc1Nc1nc(Nc2ccc3c(c2)CCCC(=O)N3)ncc1Cl` the melting point was 276 to 282 °C. `COC(=O)C(c1ccccc1)N1C(=O)C(N=[N+]=[N-])C1Sc1nnc(C)s1` (stereo not drawn) gave a melting point of 81 to 84 °C. Compound `O=S(=O)(Nc1cc(Br)nc(Br)c1)c1cccc(C(F)(F)F)c1` has a melting point of 149 to 151 °C. For `CCCCCCCCCCCCSCC(O)CO` (stereo not drawn), the melting point was 53 to 54 °C. Compound `CC12CCC3c4ccc(C(=O)O)cc4CCC3C1CCC2C(=O)c1ccc(C(F)(F)F)cc1` (stereo not drawn) has a melting point of 300 to 303 °C. Compound `CCN(CC)CC1CCCCN1CCNC(=O)N1c2ccc(Cl)cc2C(=O)Nc2cccnc21` (stereo not drawn) has a melting point of 138 to 140 °C. In the case of `COc1ccc(N(CCCC(=O)O)C(=O)CCN(C(C)=O)c2c(C)cccc2C)cc1`, the melting point is reported as 90 to 92 °C. In the case of `CC1CC(N)(C(=O)O)c2cc(F)ccc2O1` (mixture of isomers), the melting point is reported as 153 to 156 °C. `COc1cc(C(=O)NS(=O)(=O)c2ccccc2)ccc1Cc1cn(C)c2ccc(NC(=O)OC3CCCC3)cc12` gave a melting point of 125 to 130 °C. In the case of `COC(=O)c1ccc(CN2CCCc3cc4c(cc32)C(C)(C)CCC4(C)C)cc1`, the melting point is reported as 173 to 175 °C. With `CC(C#Cc1ccc(C(=O)Cc2ccc(F)cc2)o1)N(O)C(N)=O` (stereo not drawn) the melting point was 154 to 156 °C. With `CCc1c(C)c2c(OC)cc(-c3ccc(C(C)C)cc3)cc2oc1=O` the melting point was 115 °C. For `O=C(O)c1cccc(COc2ccccc2Cl)c1OCc1ccccc1Cl`, the melting point was 96 to 98 °C. `CCCCOc1ccc(C=C(C#N)S(C)(=O)=O)cc1` showed a melting point of 96.5 to 97 °C. In the case of `Cc1ccc(C(=O)Nc2ccc(-n3nc(C(F)(F)F)cc3C(F)(F)F)cc2)c(Cl)n1`, the melting point is reported as 155 to 156 °C. In the case of `COC(=O)C1=CC=CC(C(=O)OC)(N(c2ccccc2)c2ccc(-c3ccc(N(c4ccccc4)C4(C(=O)OC)C=CC=C(C(=O)OC)C4)cc3)cc2)C1` (stereo not drawn), the melting point is reported as 136 to 141 °C. In the case of `Cc1c([N+](=O)[O-])c(=O)n(-c2cc(C(=O)OC(C)C)c(Cl)cc2F)c(=O)n1C`, the melting point is reported as 129 to 131 °C. With `CCOC(=O)c1c(O)nc2c(C(F)(F)F)cccc2c1O` the melting point was 190 °C. In the case of `O=C(c1cccs1)C(O)c1ccc(Cl)c(Cl)c1` (stereo not drawn), the melting point is reported as 108 to 109 °C. `CC(Oc1ccc2nc(NC(=O)NCCN3CCN(Cc4ccccc4)CC3)sc2c1)c1c(Cl)ccc(F)c1Cl` (stereo not drawn) showed a melting point of 125 to 139 °C. Compound `Cc1ccc(C)c(SCCCC(=O)O)c1` has a melting point of 61 to 62 °C. Work on `COC(=O)C1=C(C)NC(c2c(F)cc(F)cc2F)=NC1c1ccc(F)cc1Cl` (stereo not drawn) yielded a melting point of 112 to 114 °C. In the case of `COc1cc(C2=CCCCC2)c(Cl)cc1C(=O)N1Cc2cccn2Cc2ccccc21`, the melting point is reported as 92 to 98 °C. Work on `CCCCCCCN(Cc1ccc(C(C)(C)C)cc1)C(Nc1c(C)cc(C)cc1C)=C1C(=O)COC1=O` yielded a melting point of 141 to 143 °C. In the case of `NC(=O)C1(CCC(=O)O)c2ccccc2-c2ccccc21`, the melting point is reported as 191 to 192 °C. For `Cc1cnc2c(c1C)CCCC2C(N)=S` (stereo not drawn), the melting point was 163 to 165 °C. With `ON=C(c1cccs1)c1cccc2nc(N[C@@H]3CCc4ccccc43)ccc12` the melting point was 180 °C. `c1ccc(-c2nn3c(c2-c2nc4ncccc4[nH]2)CCC3)nc1` showed a melting point of 170 to 172 °C. Work on `CC(=O)C(C)Oc1nn(C(C)C(C)=O)c(-c2ccc(S(C)(=O)=O)cc2)c1-c1ccc(F)cc1` (stereo not drawn) yielded a melting point of 127 to 129 °C. Compound `CN1Cc2c(C#CC(C)(C)O)ncn2-c2ccccc2C1=O` has a melting point of 168 to 169 °C. `O=C(O)c1ccc(NCCCCCCCCc2ccccc2)cc1` gave a melting point of 113 to 115 °C. `O=C1Nc2cccnc2N(C(=O)CCN2CCN(Cc3ccccc3)CC2)c2ccccc21` gave a melting point of 205 to 207 °C. `CCC(CC)Nc1c([N+](=O)[O-])cc(C)c(COC(=O)COc2ccc(Cl)cc2Cl)c1[N+](=O)[O-]` gave a melting point of 103 to 106 °C. Work on `CC(C)(C)c1ccc(C(=O)n2c3cc(O)c(O)cc3c3ccc(O)c(O)c32)cc1` yielded a melting point of 234 to 236 °C. `[N-]=[N+]=NCC1OC(n2c(N=[N+]=[N-])nc3c(N)ncnc32)C(O)C1O` (stereo not drawn) showed a melting point of 128 to 130 °C. For `COc1c(C)cc(C(=O)c2cc(-c3ccc(Cl)cc3)c(N3CCOCC3)s2)nc1C`, the melting point was 160 °C. In the case of `CCN(CC)CCNC(=O)N1CCCC(S(=O)(=O)c2ccc(Cl)cc2)C1` (stereo not drawn), the melting point is reported as 141 to 142 °C. Compound `C(=C\c1nc(COc2ccc(CCCn3ccnc3)cc2)co1)/c1ccco1` has a melting point of 122 to 123 °C. `CCc1c(O)n[nH]c1C` showed a melting point of 232 to 234 °C. Compound `CCn1c(Cc2ccc(C)cc2)nnc1[C@@H](C)NS(=O)(=O)c1ccc(Cl)c(Cl)c1` has a melting point of 189 to 191 °C. `COc1cc(COc2ccc3nc(NC(=O)OCCN(C)C)cn3n2)cc(OC)c1OC` showed a melting point of 185 to 186 °C. Work on `OCC(O)Cc1ccccc1OCc1ccc2ccccc2c1` (stereo not drawn) yielded a melting point of 119 to 120 °C. `Cn1cc(C(N)=O)c(=O)c2ccc(C(C)(C)C)cc21` showed a melting point of 268 to 270 °C. Work on `CC(=O)N1CCOc2c(C(=O)O)cc(Cl)cc21` yielded a melting point of 76 to 77 °C.

Reference: a melting point compilation (Tetko et al.; mined from patent text by program, amines drawn as free bases though some values may be those of a salt)
